Blank lines part the entries; values can stand above or below the compound they belong to.
Tests used:
[1] = target: Myc proto-oncogene protein (Homo sapiens, UniProt P01106); test: Inhibition of human c-Myc assessed as reduction in c-Myc/Max/Ebox DNA complex formation using pre-formed complex of c-Myc and biotinylated DNA containing single Ebox-sequence followed by compound addition and further addition of his6-tagged c-Max and incubated for 2 hrs by AlphaScreen assay
NCI-H2171 = test: Antiproliferative activity against human NCI-H2171 cells after 72 hrs by ATPlite assay; type: functional, cell-based; details: NCI-H2171, 72 h

Sequence of Myc proto-oncogene protein (P01106 whole entry): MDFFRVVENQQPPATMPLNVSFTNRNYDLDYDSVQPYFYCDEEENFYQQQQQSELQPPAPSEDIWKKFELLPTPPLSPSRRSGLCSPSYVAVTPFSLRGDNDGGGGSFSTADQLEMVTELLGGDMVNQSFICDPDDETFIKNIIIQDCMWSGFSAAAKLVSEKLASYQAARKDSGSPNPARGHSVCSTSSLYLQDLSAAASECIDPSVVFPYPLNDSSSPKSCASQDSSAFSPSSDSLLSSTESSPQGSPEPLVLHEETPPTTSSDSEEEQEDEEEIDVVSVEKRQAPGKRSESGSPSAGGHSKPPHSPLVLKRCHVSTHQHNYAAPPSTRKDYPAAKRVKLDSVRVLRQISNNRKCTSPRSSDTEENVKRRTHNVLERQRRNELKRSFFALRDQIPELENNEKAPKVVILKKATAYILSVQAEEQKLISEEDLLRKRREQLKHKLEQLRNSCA

- IC50 [1]: > 10000 nM
- IC50 (NCI-H2171): < 300 nM
Structure (SMILES): COCCNCCC(=O)Nc1sc2c(c1-c1nc3ccc(-c4ccc5nc(N)ncc5c4)cc3s1)CCNC2

- IC50 [1]: < 300 nM
- IC50 (NCI-H2171): 300 to 1000 nM
Structure (SMILES): COc1ccc2sc(-c3c(NC(=O)CCNC(C)C)sc4c3CCNC4)nc2c1Cl

- IC50 [1]: < 300 nM
- IC50 (NCI-H2171): < 300 nM
Structure (SMILES): CC(C)NCCC(=O)Nc1sc2c(c1-c1nc3cc(-c4cn[nH]c4)ccc3s1)CCNC2

- IC50 [1]: < 300 nM
- IC50 (NCI-H2171): < 300 nM
Structure (SMILES): COCCNCCC(=O)Nc1sc2c(c1-c1nc3cc(-c4ccc5ncnn5c4)ccc3s1)CCNC2

- IC50 [1]: < 300 nM
- IC50 (NCI-H2171): 300 to 1000 nM
Structure (SMILES): CC(C)NCCC(=O)Nc1sc2c(c1-c1nc3cc(-c4ccc(O)cc4)ccc3s1)CCNC2

More lines, now with the values behind:

Structure (SMILES): CC(C)N1CCc2c(sc(NC(=O)CCN3CCN(C)CC3)c2-c2nc3ccccc3s2)C1
- IC50 [1]: 300 to 1000 nM
- IC50 (NCI-H2171): 300 to 1000 nM

Structure (SMILES): CCOc1ncccc1-c1ccc2sc(-c3c(NC(=O)CCNCCOC)sc4c3CCNC4)nc2c1
- IC50 [1]: 1000 to 10000 nM
- IC50 (NCI-H2171): 300 to 1000 nM

Structure (SMILES): CC(C)NCCC(=O)Nc1sc2c(c1-c1nc3ccc(-c4cnn(C)c4)cc3s1)CCNC2
- IC50 [1]: < 300 nM
- IC50 (NCI-H2171): < 300 nM

Structure (SMILES): CCc1cccc2sc(-c3c(NC(=O)CCNCCOC)sc4c3CCNC4)nc12
- IC50 [1]: < 300 nM
- IC50 (NCI-H2171): < 300 nM

Structure (SMILES): COCCNCCC(=O)Nc1sc2c(c1-c1nc3cc(-c4cncc(C(F)(F)F)c4)ccc3s1)CCNC2
- IC50 [1]: 300 to 1000 nM
- IC50 (NCI-H2171): < 300 nM

Structure (SMILES): COCCNCCC(=O)Nc1sc2c(c1-c1nc3ccc(-c4ccnc(OC)c4)cc3s1)CCNC2
- IC50 [1]: 300 to 1000 nM
- IC50 (NCI-H2171): < 300 nM

Structure (SMILES): COCCNCCC(=O)Nc1sc2c(c1-c1nc3cc(-c4cncc(C#N)c4)ccc3s1)CCNC2
- IC50 [1]: 300 to 1000 nM
- IC50 (NCI-H2171): 300 to 1000 nM

Structure (SMILES): COCCNCCC(=O)Nc1sc2c(c1-c1nc3ccc(-c4ccc(C)nc4)cc3s1)CCNC2
- IC50 [1]: 300 to 1000 nM
- IC50 (NCI-H2171): < 300 nM

Structure (SMILES): COCCNCCC(=O)Nc1sc2c(c1-c1nc3ccc(-c4cccc(S(N)(=O)=O)c4)cc3s1)CCNC2
- IC50 [1]: 300 to 1000 nM
- IC50 (NCI-H2171): < 300 nM

From ChEMBL document CHEMBL4476874, “Compounds for the modulation of myc activity” (2018)
